{"source": "patent US4588587A", "about": "“Method of treatment to inhibit metastasis” (Pennsylvania Hospital, priority 1983, dated 1986)", "system": "T241 sarcoma cells", "assay": "Lung and mediastinal tumor colonization after intravenous injection of T241 sarcoma cells", "format": "in vivo, mice", "experimental": "Sarcoma T241 (12), a dimethylbenzanthracene-induced tumor originally derived from a C57BL/6 mouse, was maintained as ascitic tumor in syngeneic C57BL/6 mice or B6AF1 compatible hybrids (Jackson Laboratory, Bar Harbor, Me.). The capacity of the cells of this tumor to induce platelet aggregation and coagulation was assayed in a conventional manner. […] The tumor cells, however, did display a moderate procoagulant activity as reflected by a shortened recalcified clotting time. The addition of 10^6 T241 cells to syngeneic citrated plasma reduced the clotting time to between 1/3 and 1/2 control levels. Another known property of these cells is the capacity to degrade type IV collagen.\nLung tumor colonies were induced by the intravenous injection of T241 sarcoma cells. One week-old ascitic tumor cells were separated by centrifugation (100 g for 10 min) at 4° C., washed twice with Hanks' solution and suspended in the same medium (125,000-250,000 cells per ml). The suspension contained monodispersed cells of high viability (95%). Two tenths of one ml of the suspension containing 25,000 or 50,000 cells were injected intravenously into male or female C57BL/6 mice (about 25 g), and into B6AF1 mice (25-30 g), respectively, the animals housed under identical conditions of temperature, photoperiodicity, and feeding, were killed 20 days later and the number of metastases counted with a Bausch & Lomb dissecting microscope.\nTwo tenths of one ml of extract or semipurified fractions (100-400 ug of protein) were injected intravenously through the tail vein two hours before and two and four hours after receiving the tumor cell inoculation. Controls were similarly injected, but with 20 mM Hepes, 10 mM CaCl2, pH 7.8 aqueous solution. Additional controls were treated with either one intravenous injection of 15 units of heparin (Elkins-Sinn, Cherry Hill, N.J.) or 2 units of Bothrops atrox venom (Atroxin, Sigma, St. Louis, Mo.) in 0.2 ml of saline given 1 hour before tumor inoculation.", "key": {"[1]": {"conditions": "C57BL/6J mice, T241 cells i.v., killed 20 days later"}}}
{"substance": "heparin", "values": [{"measurement": "Percentage of Mice with Tumors, Lung", "setting": "[1]", "value": 100, "unit": "Percentage"}, {"measurement": "Percentage of Mice with Tumors, Mediastinal", "setting": "[1]", "value": 80, "unit": "Percentage"}, {"measurement": "Lung Tumors per Mouse, Median", "setting": "C57BL/6J mice, excluding mice without lung tumors", "value": 5}, {"measurement": "Diameter of Lung Tumors", "setting": "C57BL/6J mice, mean and S.E.M., excluding mice without lung tumors", "value": "2.2 ± 0.1", "unit": "mm"}, {"measurement": "antimetastatic effect on lung and mediastinal tumors (in words)", "setting": "T241 sarcoma cells i.v. in mice", "value": "reduced only slightly"}, {"measurement": "antimetastatic effect at much higher doses given more frequently", "setting": "compared with the extract", "value": "could not be reproduced"}]}
